The values below come from patent US20170319611A1, “METHODS AND COMPOSITIONS COMPRISING AKT INHIBITORS AND/OR PHOSPHOLIPASE D INHIBITORS” (Vanderbilt University, priority 2012, published 2017).

The test system of one assay is myrAktl. As to the kind of experiment: Akt phosphorylation immunoblot, myrAktl U87MG cells. It counts as cell-based, human. The following applies: overnight, serum-free DMEM; 10 μM EVJ or 5 μM JWJ. The protocol:
To confirm the observed effects on autophagy and cell death following PLD inhibition in glioma cells was due to the regulation of Akt by PLD2, a stable U87MG cell line was developed to expresses a constitutively active form of Akt under the transcriptional control of the tetracycline repressor protein (Yao, F. et al., (1998) Hum. Gene Ther. 9, 1939-1950). This Akt construct contains the myristoylation sequence from Src kinase (Kohn, A. D. et al., (1996) J. Biol. Chem. 271, 31372-31378) and is constitutively membrane associated and active. Without wishing to be bound by a particular theory, if PtdOH serves to enhance membrane docking of Akt then PLD inhibition should not decrease phosphorylation of myristoylated Akt (myrAkt) since this construct bypasses lipid recruitment signals for membrane association. […] Tetracycline inducible myrAktl-expressing U87MG cells, or parental cells, were seeded into media containing 0.1 ug/ml tetracycline and protein expression induced for approximately 24 hours. […] Cells were seeded and treated as in figure A and immunoblotted for phosphorylated and total AMPK. AMPK activation was quantitated by densitometric quantification of the phospho-AMPK band over the total AMPK band. Fold changes were calculated by normalizing the DMSO condition to 1 for each cell line. […] Referring to FIG. 23B, parental or myrAktl U87MG cells were treated with the indicated inhibitors as in 23A overnight before blotting for phosphorylated and total Akt.
Background: Immunoblotting shows a protein as a band on a membrane.

A further assay has as its system LC3 and p62. As to the kind of experiment: Autophagy marker immunoblot (LC3-II, p62), U87MG cells. It is filed as cell-based, human. As to conditions: 10 nM bafilomycin A1 30 min, then inhibitor 6 h. The protocol: Lysates were prepared by incubating cell pellets in lysis buffer (see immunoprecipitation procedure) for 30 minutes at 4° C. Protein concentrations were measuring using the Bio-Rad protein assay reagent. The antibodies used in the various studies as described herein, along with their vendors and catalog numbers are provided in Table 3.
In addition to apoptosis, cells undergo another type of programmed cell death requiring autophagy (Tsujimoto and Shimizu, (2005) Cell Death Differ. 12 Suppl 2, 1528-1534), a process known to be stimulated by nutrient or growth factor deprivation (Kroemer, G. et al., (2010) Mol. Cell 40, 280-293). Autophagy is a multistep process involving formation of double-membrane autophagosomes that engulf cytosolic components and deliver cargo to lysosomes for digestion and nutrient recycling (Ravikumar, B. et al., (2009) J. Cell Sci. 122, 1707-1711). In order to determine if autophagy was perturbed following PLD or Akt inhibitor (MK2206) (Hirai, H. et al., (2010) Mol. Cancer Ther. 9, 1956-1967) treatment, the expression levels of the well-characterized autophagy makers microtubule-associated protein 1A/1B-light chain 3 (LC3) and p62 were measured. Autophagasome number is frequently assessed by measuring conversion of cytosolic LC3-I to a membrane-associated, lipidated LC3-II which is readily measureable as a faster migrating species of LC3 during SDS-PAGE (Kabeya, Y. et al., (2000) EMBO J. 19, 5720-5728). The other marker, p62, is an LC3 and ubiquitin-binding protein, involved in the regulation of protein aggregates and is degraded by autophagy (Komatsu, M. et al., (2005) J. Cell Biol. 169, 425-434). Induction of autophagy and successful degradation of autophagosomes would thus be accompanied by a decrease in p62 levels. […] Fold change in immunoreactivity relative to vehicle control. ANOVA with Dunnett's post-hoc test was used to compare inhibitor treatment to vehicle control (**p<0.01).
To conclusively determine that flux, rather than autophagosome initiation, is regulated by PLC, LC3-II conversion in the presence of the lysosomal proton pump inhibitor bafilomycin A1, which prevents autophagosome fusion to lysosomes and inhibits degradation of autophagosomes, was measured. Thus, bafilomycin A1 is commonly used to discriminate the effects of a compound on autophagy initiation versus flux by assessing LC3-II levels in the presence of a test compound after clamping degradation of autophagosomes (Yamamoto, A. et al., (1998) Cell Struct. Funct. 23, 33-42).

Take `O=C(NCCN1CCC2(CC1)C(=O)NCN2c1cccc(F)c1)c1ccc2ccccc2c1` [No. 1, N-(2-(1-(3-fluorophenyl)-4-oxo-1,3,8-triazaspiro[4.5]decan-8-yl)ethyl)-2-naphthamide]: the “phosphorylated Akt in myrAktl U87MG cells” value with myrAktl is “failed to reduce levels of phosphorylated Akt”. The “accumulation of LC3-II in the presence of bafilomycin A1” value in the assay on LC3 and p62 is reported as “no additional accumulation of LC3-II”.
